We go through two compounds from US6239284A, “Aromatic tetracyclic compounds of the retinoid type method for preparing and use” (priority 1997, dated 2001).

Experiment [1] has as its system RARβ. The experiment can be described thus: Transactivation of chimerical receptor GAL4-RARβ, transient transfection of HeLa cells (luciferase).
Source text: (§8) Studies of the transactivational specificity of the retinoids have been carried out by transitory transfection of HeLa cells. Two types of chimerical receptors can then be expressed by the cells. […] The C region (domain of bonding to the DNA) and the A and B regions (AF-1 activation domain) are suppressed.
(§9) These chimerical receptors activated by an agonist specifically stimulate the transcription of the gene of the luciferase present in a co-transfected plasmid ((17M)5-βG-Luc) where 17M is the response element of Gal4.
The subject of another experiment is AP-1. The experiment can be described thus: Anti-AP-1 effect, MTLN cellular lineage (MCF-7 with (TRE)3-tk-Luc) activated by TPA. The conditions noted are these: for Anti-AP-1 effect, Inhibition (%): 10^-7 M TPA, range of several experiments. Format: cell-based, human. The procedure: The anti-factor AP-1 transrepressor effect of retinoids is determined using the MTLN lineage, coming from MCF-7 cells transfected in a stable fashion by a vector p(TRE)3 -tk-Luc which places the expression of the gene of luciferase under the control of […]. TPA activates the AP-1 complex formed from proteins of the family of nuclear proto-oncogenes (c-Jun and c-Fos). […] The experiments ware made with the MTLN cells activated by 10^-7 M TPA.
The effect of the compounds on the MTLN cells activated by 10^-7 M TPA is expressed as a percentage. […] The inhibitive properties of the products are calculated after deduction of the base activity of the cells. The percentages reported correspond to a range of inhibitions determined from several experiments.

For another experiment, the system named is MCF-7 cells. The experiment can be described thus: Anti-proliferation effect, estrogen-induced growth of MCF-7 cells. Format: cell-based, human. The procedure: (§1) So as to test the anti-proliferation effect of the retinoids, growth experiments under oestrogenic conditions were carried out on cells MCF-7 and T-47D. These are the human estrogen-dependent mammary cancer cells which express the receptor to RE estrogens. The effect of the molecules is evaluated after 7 days of culture in oestrogenic conditions (estradiol 10^-9 M) by dosing the cellular DNA. The cells are distributed in 24 well plates at a density of 2×10^4 cells per well. The tests with the different retinoids are carried out in triplicate and the culture medium is changed after 4 days of growth.
(§2) The effect of the retinoids on the growth of MCF-7 and T-47D cells is evaluated after 7 days of culture in the presence of 10^-9 M estradiol by dosing the cellular DNA.

Experiment [2] has as its system RARE. The experiment can be described thus: HRL+N transactivation (stably transfected HeLa, RARE reporter, endogenic receptors). Format: cell-based. From the text:
(§3) The cellular lineages HRLN and HRL+N allow one to study the activation of an RARE by endogenic receptors using ligands at physiological concentrations. These lineages derive from HeLa cells transfected in a stable fashion by a reporter gene which places the expression of the gene of the luciferase under the control of a nuclear response element RARE (RARE3 -tk-Luc). The HeLa cells express all the known receptors of the retinoic acid (RARα,β,γ and RXRα,β,γ) with a predominance of RARα and RXRα. The response element RARE used for the HRLN cells corresponds to the sequence of the natural gene of the RARβ receptor (GGTTCAnnnnnAGTTCA). The HRL+N cells comprise the sequence GAGTGAnnnnnCGGTGA.
The HRL+N lineage allows one to visualize a co-activation of the RAR and RXR receptors at the level of the RAR-RXR hetero-dimer.

Experiment [3] deals with RAR. The experiment can be described thus: GAL-RAR model, specificity profile (transient transfection of HeLa cells).
Source text: as §8, §9
In the next experiment the test system is RARγ. The experiment can be described thus: Transactivation of chimerical receptor GAL4-RARγ, transient transfection of HeLa cells (luciferase).
In experiment [4] the test system is RARβ. The experiment can be described thus: Transactivation of chimerical receptor RARβ-ERcassette, transient transfection of HeLa cells. Format: cell-based. An excerpt: (§4) The HeLa cells are co-transfected by a plasmid which codes for a retinoic receptor in which the C domain of bonding to the DNA is substituted by that of the receptor to RE estrogens, and a plasmid which places the expression of the luciferase under the control of an ERE (Element of Response to Estrogens). The expressed chimerical receptors are designated as RARα-ERcassette, RARβ-ERcassette, RARγ-ERcassette and RXRα-ERcassette. The A, B, D, E and F regions of the natural receptor are preserved as well as the transcriptional co-operation between the activation domains AF-1 and AF-2. These transitory transfection experiments follow the method of co-precipitation to calcium phosphate. The HeLa cells are co-transfected by […] of plasmid coding for the chimerical receptor, […] of reporter plasmid and […] of expression vector CMV-β-galactosidase used as an internal control of transfection. 24 hours after the transfection, the cells are incubated for 16 hours with the different effectors.
(§5) In this type of chimerical receptor, the C domain of bonding to the DNA of RAR is substituted by that of the receptor to the RE estrogens. The protein obtained is close to the natural RAR receptor and preserves the transcriptional properties of the AF-1 and AF-2 domains. It modulates the transcription by means of an ERE. This RAR-ERcassette model allows one to observe a transcriptional response to a more physiological ligand.
(§6) The study of the selectivity of the compounds was carried out with the RAR-ERcassette chimerical receptors model.
(§7) On one and the same line in the Table, the cis (Z) compound represents the isomeric structure of the trans (E) compound.

The next experiment concerns T-47D cells. The experiment can be described thus: Anti-proliferation effect, estrogen-induced growth of T-47D cells. The experiment is classed as cell-based, human. Here is the method:
as §1, §2

In experiment [5] the test system is RAR. The experiment can be described thus: RAR-ERcassette model, specificity profile (transient transfection of HeLa cells). Format: cell-based.
Source text: as §4, §5, §6

For experiment [6], the system named is RARE. The experiment can be described thus: HRLN transactivation (stably transfected HeLa, RARE3-tk-Luc, endogenic receptors). Format: cell-based.
Source text: as §3

The test system of experiment [7] is ERE. The experiment can be described thus: Anti-estrogenic effect, MELN cellular lineage (MCF-7 with ERE-βGlob-Luc) activated by estradiol. Format: cell-based, human. Particulars: Homo sapiens, read-out: Anti-oestrogenic effect, Inhibition (%). The procedure: MCF-7 cells express RARα,γ and RXRα. The transfection of MCF-7 cells by an estrogen-dependent gene (ERE-βGlob-Luc) has permitted the establishment of the MELN cellular lineage, used to determine the anti-oestrogenic activity of the retinoids. These cells contain the gene of the luciferase under the transcriptional control of the promoter of the βGlobine and of the response element ERE isolated from the gene of chicken vitelogenine A2. The experiments are carried out with MELN cells activated by 10^-9 M estradiol. The level of base activity of the MELN cells is obtained with the anti-estrogen 1 μM 4-OH-tamoxifen (hydroxytamoxifen).
The effect of the products tested on the cells activated by 10^-9 M estradiol is expressed as a percentage, the level of base activity being deducted.

The subject of experiment [8] is RARα. The experiment can be described thus: Transactivation of chimerical receptor RARα-ERcassette, transient transfection of HeLa cells. The experiment is classed as cell-based. The conditions noted are these: -9 log M; 100% = TTNPB 10^-8 M.
Source text: as §4, §5, §6, §7

The subject of experiment [9] is ERE. The conditions noted are these: cited from earlier work.
Experiment [10] deals with RARα. The experiment can be described thus: Transactivation of chimerical receptor GAL4-RARα, transient transfection of HeLa cells (luciferase).
Source text: as §8, §9

Source text for RARγ: as §8, §9

As to `C=C(c1ccc(C(=O)O)cc1)c1cc2c(cc1C)C(C)(C)CCC2(C)C` [LGD1069], the “GAL4-RARβ activity, % of activity measured for 10^-8 M TTNPB” value with RARβ [1] (Concentration -7 (log M)) turned out to be 5%; with RARβ [1] (Concentration -8 (log M)) it was 1%. Also, in the experiment with AP-1, the “Anti-AP-1 effect (MTLN) in words” value is “most effective compound tested in this model”. In the experiment on MCF-7 cells (estrogenic conditions), the “Effect on growth of MCF-7 cells in words” value is recorded as “no effect whatsoever on the growth”. The “HRL+N transactivation in words” value with RARE [2] was “more effective than the RAR specific molecules”. Moreover, the “GAL-RAR agonist profile in words” value in the experiment with RAR [3] is “do not allow one to observe a good transactivation mediated by RAR”. Also, the figures for the “GAL4-RARγ activity, % of activity measured for 10^-8 M TTNPB” value in the experiment on RARγ (Concentration -6 (log M)), with RARγ (Concentration -7 (log M)) and with RARγ (Concentration -8 (log M)) were 29%, 8% and 1%, respectively. For the same compound, in the experiment with RARβ [4], the “RARβ transactivation (RAR-ERcassette) in words” value is reported as “transcriptional power appears higher notably through the RARβ-ERcassette”. For the same compound, in the experiment on T-47D cells (estrogenic conditions), the “Effect on growth of T-47D cells in words” value is recorded as “no effect whatsoever on the growth”.
For the compound `CC1=C(/C=C/C(C)=C/C=C/C(C)=C/C(=O)O)C(C)(C)CCC1` [ttRA, all trans retinoic acid], in the experiment on RAR [5], the “RAR-ERcassette profile in words” value is recorded as “induce an over-expression of luciferase in comparison to the induction brought about by a synthetic compound (TTNPB)”. The “HRLN transactivation in words” value with RARE [6] is recorded as “dose-dependent activation”. For the same compound, the EC50 (in general, the concentration giving half of the maximal effect) with RARE [6] (Homo sapiens, HeLa, concentrations from 1 nM to 1 μM, read-out: HRLN transactivation EC50) came to 2.5 ± 4 nM. Further, the Emax with RARE [6] (Homo sapiens, HeLa, read-out: HRLN transactivation E max %) came out at 208%. In addition, the “GAL4-RARβ activity, % of activity measured for 10^-8 M TTNPB” value amounted to 92% in the experiment on RARβ [1] (Concentration -6 (log M)), 93% with RARβ [1] (Concentration -7 (log M)) and 104% in the experiment with RARβ [1] (Concentration -8 (log M)). In the experiment on ERE [7], the inhibition (in general, how much of the control response was suppressed) at 0.1 µM was 35%. The “Anti-AP-1 effect, Inhibition (%)” value was 28-44% in the experiment on AP-1 (-7 log M) and 22-33% in the experiment on AP-1 (-8 log M). Moreover, the concentration for half-maximal inhibition (IC50) (commonly the concentration at which inhibition is half-maximal) in the experiment on MCF-7 cells (Homo sapiens, MCF7, 168 h, read-out: MCF-7 IC50 (growth inhibition by 50%)) was determined as 14.1 ± 10.3 nM; with T-47D cells (Homo sapiens, T47D, 168 h, read-out: T-47D IC50 (growth inhibition by 50%)), 39.1 nM. Also, in the experiment with RARα [8], the “RAR-ERcassette RARα transactivation (%)” value was 65%. Further, the “GAL-RAR agonist profile in words” value with RAR [3] is reported as “good RAR agonists”. The “Effect on cellular growth and expression of estrogen-dependent genes” value in the experiment on ERE [9] is “reduces the cellular growth and the expression of estrogen-dependent genes”. Further, the entries for the “GAL4-RARα activity, % of activity measured for 10^-8 M TTNPB” value with RARα [10] (Concentration -6 (log M)), with RARα [10] (Concentration -7 (log M)) and with RARα [10] (Concentration -8 (log M)) were 108%, 102% and 82%, respectively.
